Test results from patent US9572827B2, “Pharmaceutical composition for treating depression and method for preparation thereof” (Beijing Wonner Biotech, Ltd. Co., priority 2005, dated 2017).

How the values were obtained:
[1] = tested on: ICR mice; assay: Mouse tail-hanging experiment; format: in vivo; conditions: 16.7 mg/kg, fed into the stomach 2 times per day for 7 days; 1 hour after last administration; last 5 of 6 minutes
Procedure: Experiment 1: “Mouse Tail-Hanging” Experiment Experimental animal: ICR mice Experimental pharmaceuticals: The pharmaceutical of the Embodiment 3 of the present invention is provided by Beijing Wonner Biotech Ltd. Co., the depression-relieving pill is the product of Zhengzhou Yumi Medicines Co. Ltd., and Paroxitine (Paxil) is the product of Zhong Mei Tianjin Smith Kline pharmaceuticals Co. Ltd. I. Group division: 1. Large dose of the Embodiment 3 medicine of the present invention (188.5 mg/kg), 2. middle dose of the Embodiment 3 medicine of the present invention (94.25 mg/kg), 3. small dose of the Embodiment 3 medicine of the present invention (47.125 mg/kg), 4. depression-reliving pill (650 mg/kg), 5. Paroxitine (16.7 mg/kg), and 6. physiological saline. (Ten (10) mice are in each group.) II. Administration of drug: The abovementioned pharmaceutical water solutions are fed into the stomach according to 0.2 ml/10 g body weight, 2 times per day for a total of 7 days. After 1 hour of the last administration of drug, the mouse tail-hanging experiment is proceeded. III. […] The time of non-movement of the mouse for the last 5 minutes is recorded. The variance analysis calculation and the p-value compared with the control of the experimental result are calculated by using SPSS 11.5 analytic software.

[2] = tested on: ICR mice; assay: Body temperature decrease experiment induced by resetpine; format: in vivo; conditions: 16.7 mg/kg, 2 times per day for 7 days
Excerpt: Experiment 2: Body Temperature Decrease Experiment Induced by Resetpine
Experimental animal: ICR mice
Experimental pharmaceuticals: The pharmaceutical of the Embodiment 3 of the present invention is provided by Beijing Wonner Biotech Ltd. Co., the depression-relieving pill is the product of Zhengzhou Yumi Medicines Co. Ltd., and Paroxitine (Paxil) is the product of Zhong Mei Tianjin Smith Kline pharmaceuticals Co. Ltd.
I. Group division: 1. Large dose of the Embodiment 3 medicine of the present invention (188.5 mg/kg), 2. middle dose of the Embodiment 3 medicine of the present invention (94.25 mg/kg), 3. small dose of the Embodiment 3 medicine of the present invention (47.125 mg/kg), 4. depression-reliving pill (650 mg/kg), 5. Paroxitine (16.7 mg/kg), and 6. physiological saline. (Ten (10) mice are in each group.)
II. Administration of drug: the abovementioned pharmaceutical water solutions are fed into the stomach according to 0.2 ml/10 g body weight, 2 times per day for a total of 7 days.
III. After the last administration of drug, the anal temperature (abbreviated as anal temp.) is determined, and then 2 mg resetpine per kg of the body weight is taken by intraperitoneal injection. After injecting the resetpine for 2, 3, 4, 5, 6 and 7 hours respectively, the anal temperature of the mice are determined.
The variance analysis calculation and the p-value compared with the control of the experimental result are calculated by using SPSS 11.5 analytic software.

Fc1ccc([C@@H]2CCNC[C@H]2COc2ccc3c(c2)OCO3)cc1 [Paroxitine]
Time of non-movement [1]: 54.98 ± 46.92 s
Decreased anal temp. for 2 hr ([2]; 2 hr after resetpine 2 mg/kg i.p.): 1.29 ± 0.47 °C
Decreased anal temp. for 3 hr ([2]; 3 hr after resetpine 2 mg/kg i.p.): 1.08 ± 0.35 °C
Decreased anal temp. for 4 hr ([2]; 4 hr after resetpine 2 mg/kg i.p.): 1.55 ± 0.64 °C
Decreased anal temp. for 5 hr ([2]; 5 hr after resetpine 2 mg/kg i.p.): 1.44 ± 0.32 °C
Decreased anal temp. for 6 hr ([2]; 6 hr after resetpine 2 mg/kg i.p.): 2.51 ± 0.47 °C
Decreased anal temp. for 7 hr ([2]; 7 hr after resetpine 2 mg/kg i.p.): 2.76 ± 0.59 °C
